According to ChEMBL document CHEMBL3301361, “Experimental in vitro DMPK and physicochemical data on a set of publicly disclosed compounds”:
Converted amounts (≈) assume the structure as drawn.

What was measured:
[1] = physchem; conditions: pH 7.4 buffer
[2] = physchem; conditions: octan-1-ol/water, pH 7.4, LogD7.4

Row | Compound | solubility thermodynamic [1] [µM] | logD [2]
1 | Cc1ncc(-c2ccc([C@H]3CC[C@H](CC(=O)O)CC3)cc2)nc1C(N)=O | 372 (≈ 131 µg/mL) | 1
2 | COc1cc(OC2CCN(C)CC2)c2c(Nc3cccc4c3OCO4)ncnc2c1 | 91.2 (≈ 37.3 µg/mL) | 3.02
3 | c1ccc(-c2c[nH]c(-c3ccccc3)n2)cc1 | 151 (≈ 33.3 µg/mL) | 3.8
4 | CCn1cc(NC(=O)Cc2ccc(Oc3ccnc4cc(OC)c(OC)cc34)cc2OC)cn1 | 22.9 (≈ 10.6 µg/mL) | 3.42
5 | Cc1cn(C[C@H]2CN(c3ccc(C4=CCS(=O)(=O)CC4)c(F)c3)C(=O)O2)nn1 | 372 (≈ 151 µg/mL) | 1.25
6 | CC1(COc2ccc3c(c2)ncn3-c2ccc3cccc(N4CCC(N)CC4)c3n2)COC1 [CRENOLANIB] | 5.1 (≈ 2.26 µg/mL) | 1.99
7 | Cn1c(=O)c(Oc2ccc(F)cc2F)cc2cnc(NC3CCOCC3)nc21 [R-1487] | 20.4 (≈ 7.92 µg/mL) | 2.76
8 | O=C(CO)N1CCC[C@H]1COc1cccc2ncnc(Nc3ccc(OCc4ccccn4)c(Cl)c3)c12 | 1.9 (≈ 0.988 µg/mL) | 3.62
9 | Nc1ncnc2c1nc(Sc1nc3cccc(Cl)c3s1)n2CCO | 2 (≈ 0.758 µg/mL) | 2.37
10 | NC(=O)c1sc(-c2ccccc2)cc1N | 38.9 (≈ 8.49 µg/mL) | 2.33
11 | CN(C)C(=O)[C@H](Cc1ccccc1)NC(=O)c1cc2cc(F)ccc2[nH]1 | 3.6 (≈ 1.27 µg/mL) | 3.5
12 | Cc1ccc(NC(=O)c2cccnc2)cc1-n1cnc2ccc(N3CCN(C)CC3)cc2c1=O | 251 (≈ 114 µg/mL) | 1.5
13 | CC1(c2nc(N3CCOCC3)ncc2C(=O)N[C@H]2C3CC4CC2C[C@](O)(C4)C3)CC1 | 407 (≈ 168 µg/mL) | 2
14 | COc1cc(N2CCN(CCO)CC2)ccc1Nc1ncc(Cl)c(-c2cnc3ccccn23)n1 | 66.1 (≈ 31.7 µg/mL) | 3.2
15 | O=C(N[C@@H](Cc1ccc(OCCc2ccc3c(n2)NCCC3)cc1)C(=O)O)c1c(Cl)cccc1Cl | 107 (≈ 55.1 µg/mL) | 0.33
16 | CN1CCC(n2cc(-c3cnc(N)c(-c4nc5ccc(F)cc5o4)c3)cn2)CC1 | 13.5 (≈ 5.3 µg/mL) | 3.35
17 | COc1cc(Nc2ncnc3cccc(O[C@H](C)C(=O)N4CCOCC4)c23)ccc1Oc1ccc(C)nc1 | 37.2 (≈ 19.2 µg/mL) | 3.6
18 | CN1CCN(c2ccc(NC(=O)c3nnc(Nc4ccccc4F)o3)cn2)CC1 | 91.2 (≈ 36.2 µg/mL) | 2.36
19 | Nc1nc(N)c(C(=O)Nc2ccccn2)nc1Cl | 4.5 (≈ 1.19 µg/mL) | 2.67
20 | O=C(c1ccc(F)cc1)C(O)c1ccc(F)cc1 (stereo not given) | 933 (≈ 232 µg/mL) | 2.49

Row | Compound | solubility thermodynamic [1] [µM] | logD [2]
21 | COc1ccc2c(Oc3ccc(CC(=O)Nc4n[nH]c(C)c4C)c(OC)c3)ccnc2c1 | 8.3 (≈ 3.59 µg/mL) | 3.78
22 | COc1cc(Nc2cc(Oc3ccc(C)nc3)ccn2)cc(OC)c1OC | 31.6 (≈ 11.6 µg/mL) | 3.21
23 | CC(C)C[C@H](N[C@@H](c1ccc(-c2ccc(S(C)(=O)=O)cc2)cc1)C(F)(F)F)C(=O)NCC#N | 4 (≈ 1.93 µg/mL) | 3.24
24 | CCOC(=O)c1ccc(COCC2CCN(c3ccc(C)nn3)CC2)cc1 | 468 (≈ 173 µg/mL) | 2.68
25 | COc1cc2c(Nc3cc(CC(=O)Nc4cccc(F)c4F)[nH]n3)ncnc2cc1OCCCN(CCO)CC(C)C | 132 (≈ 76.9 µg/mL) | 3.61
26 | COc1cc(C(=O)O)ccc1Cn1ccc2ccc(NC(=O)OC3CCCC3)cc21 | 186 (≈ 76.1 µg/mL) | 2.1
27 | Cc1c(-c2ccc3c(c2)OCO3)c(=O)n(C[C@H](N)c2ccccc2)c(=O)n1Cc1c(F)cccc1F | 372 (≈ 183 µg/mL) | 2.67
28 | C[C@@H]1CN(C(=O)OC(C)(C)C)CCN1c1ncc(OCc2ccc(C#N)cc2)cn1 | 3.4 (≈ 1.39 µg/mL) | 2.89
29 | O=C(c1cc(Cc2n[nH]c(=O)c3ccccc23)ccc1F)N1CCN(C(=O)C2CCOC2)CC1 (stereo not given) | 380 (≈ 177 µg/mL) | 0.8
30 | O=c1[nH]nc(Cc2ccccc2)c2ccccc12 | 24.5 (≈ 5.79 µg/mL) | 2.8
31 | CC(C)Cn1cnc(-c2ccccc2)c1-c1nc2c(N)ncnc2s1 | 70.8 (≈ 24.8 µg/mL) | 3.72
32 | COc1cc2c(Nc3ccc(Br)cc3F)ncnc2cc1OC[C@@H]1CCCN(C)C1 | 170 (≈ 80.7 µg/mL) | 3.05
33 | Cc1ncc(-c2ccnc(Nc3ccc(N(C)C)cc3)n2)n1C(C)C | 100 (≈ 33.6 µg/mL) | 3.51
34 | COc1ccc(-c2c(-c3ccc(O)cc3O)n[nH]c2C)cc1 | 209 (≈ 61.9 µg/mL) | 3.37
35 | Cc1ccc(CO)cc1N(C)c1ccnc(Nc2cc(N3CCOCC3)nc(N3CCOCC3)c2)n1 | 39.8 (≈ 19.6 µg/mL) | 3.44
36 | Cc1ccc(-c2nn(C(C)(C)C)c3ncnc(N)c23)cc1 | 9.8 (≈ 2.76 µg/mL) | 4.1
37 | CCCOc1nc(N2CCC[C@@H](CC(=O)O)C2)ccc1C(=O)NC1CCCCC1 | 550 (≈ 222 µg/mL) | 2.81
38 | COc1cc(CCc2cc(Nc3ccnc(NCc4cc(C)no4)n3)n[nH]2)cc(OC)c1 | 0.6 (≈ 0.261 µg/mL) | 3.1
39 | Nc1ncnc2c1ncn2Cc1ccccc1 [9-BENZYL-9H-ADENINE] | 246 (≈ 55.3 µg/mL) | 1.53
40 | OCCNCc1cc(Br)ccc1OCc1ccc(Cl)cc1 | 229 (≈ 84.9 µg/mL) | 2.98
